Laboratory results as given in patent US20050042318A1, “Extracts from hop, methods for producing the same and their use” (priority 2001, published 2005).

Columns and labels:
[1] = biological target: T1, human oestrogenic receptor alpha (ER-α) (Homo sapiens, UniProt P03372); assay: competitive receptor binding assay, displacement of radioactively labelled oestradiol, ER-α; conditions: for relative potency [formula] (ratio ER-α to ER-β): head is a formula, values fit relative potency ER-α / ER-β
T1 sequence (P03372 1-595): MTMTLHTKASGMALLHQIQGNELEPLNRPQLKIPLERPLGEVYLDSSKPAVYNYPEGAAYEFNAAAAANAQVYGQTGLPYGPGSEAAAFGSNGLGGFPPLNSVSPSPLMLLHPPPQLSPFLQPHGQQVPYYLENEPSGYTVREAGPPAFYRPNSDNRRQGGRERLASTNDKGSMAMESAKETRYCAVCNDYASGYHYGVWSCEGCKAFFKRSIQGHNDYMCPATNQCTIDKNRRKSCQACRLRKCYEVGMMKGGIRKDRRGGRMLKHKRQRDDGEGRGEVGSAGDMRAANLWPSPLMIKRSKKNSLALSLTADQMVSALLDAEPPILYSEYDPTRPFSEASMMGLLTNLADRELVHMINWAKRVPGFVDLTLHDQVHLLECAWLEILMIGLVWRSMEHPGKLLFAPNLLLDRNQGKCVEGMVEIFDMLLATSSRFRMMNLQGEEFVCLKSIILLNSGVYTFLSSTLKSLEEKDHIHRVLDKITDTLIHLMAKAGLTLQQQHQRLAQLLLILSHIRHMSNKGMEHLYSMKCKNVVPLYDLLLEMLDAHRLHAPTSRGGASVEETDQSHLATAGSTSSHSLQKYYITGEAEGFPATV
Description: Thereby, a radioactively labelled oestradiol was initially bonded to the human oestrogen receptor and then treated with the test substance to be examined. A portion of the labelled oestradiol which corresponds to the oestrogenic potency of the sample is thus displaced. Excessive oestradiol is washed out after bonding of the complex to hydroxylapatite. The oestrogenic receptors ER-α and ER-β were commercially available as recombinant human receptors. The test preparations consisted of 1000 μl TEDG buffer (10 mM tris, 1,5 mM EDTA, 10% glycerol, pH 7.5), 5 μl receptor (200 nM), 10 μl 3H-oestradiol and 10 μl ethanol (control value), 10 μl diethylstiloestrol (100 mM, positive control) or 10 μl extract or ingredient of the extract, respectively. The preparations were carefully mixed and incubated for about 16 hours at room temperature in the dark. After incubation 250 μl hydroxylapatite (HAP) were added to absorb the proteins. During a period of incubation of 15 minutes the preparations were manually mixed with a time-lag of 5 minutes, respectively. The precipitate is separated by centrifugation at 10,000 rpm for a few seconds and the supernatant liquid is separated by pipetting. The pellet is washed three times with 1000 μl TEDG buffer, respectively, 1000 μl ethanol are added for the measurement, the mixture is slurried and transferred to a scintillation vial. After adding 9 ml scintillator liquid (Ready Safe, Beckmann) a measurement over the complete ^3H window is carried out using a Beckmann Beta-Counter.
The characterisation of the bonding capacities of the test substances results from the determination of the ED50 values taken from the dosis-effect-plots of the displacement of oestradiol.

[2] = biological target: T2, human oestrogenic receptor (Homo sapiens, UniProt P03372); conditions: Milligan et al.; cited from earlier work
T2 construct: host or cells: yeast cells
T2 sequence (P03372 1-595): T1 sequence (P03372 1-595)

[3] = test system: ovariectomised rats; conditions: Miyamoto et al. 1998; cited from earlier work
[4] = test system: Ishikawa-Var-I-cells; conditions: cited from earlier work
[5] = test system: ovarian cancer cell lines A-2780; conditions: Miranda et al. 1999; cited from earlier work
[6] = test system: colon cancer cell lines HAT-29; conditions: Miranda et al. 1999; cited from earlier work
[7] = test system: human breast cancer cells MCF-7; conditions: Miranda et al. 1999; cited from earlier work
[8] = test system: osteolysis; conditions: EP 0 679 393 B1; cited from earlier work

Row | SMILES | relative potency [formula] (ratio ER-α to ER-β) [1] | oestrogenic activity, human oestrogenic receptor in yeast [2] | antiproliferative activity [5] | interaction with ER-α, in words [1] | antiproliferative activity [6] | antiproliferative activity [7] | also measured
1 | CC(C)=CCc1c(O)cc2c(c1O)C(=O)C[C@@H](c1ccc(O)cc1)O2 | 0.37 | weaker oestrogenic properties | – | – | – | – | –
2 | CC(C)=CCc1c(O)cc(O)c2c1O[C@H](c1ccc(O)cc1)CC2=O | 2.72 | most powerful oestrogenic activity | – | – | – | – | osseous density [3]: normalises; weight of the uterus [3]: normalises; oestrogenic activity in vitro, stimulating alkaline phosphatase ([4]; Ishikawa-Var-I-cells, Milligan et al. 1999): significantly more active than the phytooestrogenes known so far
3 | CC(C)=CCc1c(O)c(CC=C(C)C)c2c(c1O)C(=O)C[C@@H](c1ccc(O)cc1)O2 [6,8-diprenylnaringenine] | – | weaker oestrogenic properties | – | – | – | – | –
4 | CC(C)=CCC/C(C)=C/Cc1c(O)cc(O)c2c1O[C@H](c1ccc(O)cc1)CC2=O [8-geranylnaringenine] | – | weaker oestrogenic properties | – | – | – | – | –
5 | COc1cc(O)c(CC=C(C)C)c2c1C(=O)CC(c1ccc(O)cc1)O2 (stereo not shown) [Isoxanthohumol, isoxanthohumol] | 0.54 | – | strong antiproliferative activity | comparable activity | strong antiproliferative activity | strong antiproliferative activity | –
6 | COc1cc(O)c(CC=C(C)C)c(O)c1C(=O)/C=C/c1ccc(O)cc1 [Xanthohumol] | 0.78 | could not be detected | strong antiproliferative activity | comparable activity | strong antiproliferative activity | strong antiproliferative activity | effect on osteolysis [8]: inhibiting effect; oestrogenic activity in human endometrial carcinoma cell line Ishikawa ([4]; Milligan et al.): could not be detected
